The values that follow come from publication PMC9959982 (International Journal of Molecular Sciences, 2023).

One data set deals with MT-4 cells. The experiment in a line: Cytotoxicity in MT-4 cells (MTS/PES). Type of data set: cell-based. The conditions noted are these: 50% reduction in cell viability, 5 days.
The next data set deals with rhabdosarcoma (RD) cells. The data set can be described thus: Adverse effect on uninfected RD cells (MTS/PMS). Conditions: RD cells.
Data set [1] has as its system HIV-1 (NL4.3). Conditions: printed in Figure 1, prototypes of previous work; cited from earlier work.
Data set [2] concerns EV-A71 BrCr strain. The conditions noted are these: Figure 1; read-out: EV71 EC50; cited from earlier work.
The subject of the next data set is HIV-2 (ROD). The data set can be described thus: Inhibition of HIV-induced cytopathic effect in MT-4 cells, HIV-2. The format is cell-based. (In general: Cytopathic effects are the visible damage that an infection or toxin causes in cultured cells.)
The subject of data set [3] is HIV-1 (NL4.3). The data set can be described thus: microbe, parasite or virus in culture. The format is cell-based. The conditions noted are these: for EC50: virus-induced cytopathic effect reduced by 50%.
The subject of another data set is EV-A71 VP1_S184T. Type of data set: cell-based, Enterovirus A71. Conditions: VP1_S184T mutant.
Another data set relates to EV-A71 VP1_P246S. The format is cell-based, Enterovirus A71. Conditions: VP1_P246S mutant.
For another data set, the system named is EV-A71 VP1_S184T_P246S. Type of data set: cell-based, Enterovirus A71. The conditions noted are these: VP1_S184T_P246S double mutant.
Data set [4] in a line: Cytotoxicity in MT-4 cells (MTS/PES). Type of data set: cell-based. The conditions noted are these: human, 50% reduction in cell viability.
Data set [5] is described as follows: Adverse effect on uninfected RD cells (MTS/PMS). Conditions: human, uninfected rhabdosarcoma (RD) cells.
Data set [6] deals with EV-A71 BrCr strain. The experiment in a line: Virus-induced cell death assay, EV-A71 BrCr lab strain in RD cells. The format is cell-based, Enterovirus A71. The conditions noted are these: for EC50: EV-A71 BrCr (wild type).
A short description of another data set: in vitro. Conditions: human.
[7] abbreviates: Human immunodeficiency virus 2, MT4, virus-induced cytopathic effect reduced by 50%.
The mark [8] stands for this setting: Human immunodeficiency virus 1, MT4, MT-4 cells.
The mark [9] stands for this setting: Enterovirus A, EVA71, RD, RD cells.

Where two headings read alike, the source gives them in different places.

`O=C(CCOCC(COCCC(=O)NCCNC(=O)Nc1cc(C(=O)O)cc(C(=O)O)c1)(COCCC(=O)NCCNC(=O)Nc1cc(C(=O)O)cc(C(=O)O)c1)COCCC(=O)NCCNC(=O)Nc1cc(C(=O)O)cc(C(=O)O)c1)NCCNC(=O)Nc1cc(C(=O)O)cc(C(=O)O)c1` [Compound 40]: the CC50 with MT-4 cells was above 50 µM; in the data set with rhabdosarcoma (RD) cells it was above 100 µM.
Take `O=C(CCOCC(COCCC(=O)NC(Cc1c(CCCCCCCCNC(=O)Nc2cc(C(=O)O)cc(C(=O)O)c2)[nH]c2ccccc12)C(=O)O)(COCCC(=O)NC(Cc1c(CCCCCCCCNC(=O)Nc2cc(C(=O)O)cc(C(=O)O)c2)[nH]c2ccccc12)C(=O)O)COCCC(=O)NC(Cc1c(CCCCCCCCNC(=O)Nc2cc(C(=O)O)cc(C(=O)O)c2)[nH]c2ccccc12)C(=O)O)NC(Cc1c(CCCCCCCCNC(=O)Nc2cc(C(=O)O)cc(C(=O)O)c2)[nH]c2ccccc12)C(=O)O` (stereo not shown) [Compound 25]: the CC50 in the data set on MT-4 cells is above 50 µM; in the data set with rhabdosarcoma (RD) cells it was above 100 µM.
For `O=C(CCOCC(COCCC(=O)NC(Cc1c(CCCCCNC(=O)Nc2cc(C(=O)O)cc(C(=O)O)c2)[nH]c2ccccc12)C(=O)O)(COCCC(=O)NC(Cc1c(CCCCCNC(=O)Nc2cc(C(=O)O)cc(C(=O)O)c2)[nH]c2ccccc12)C(=O)O)COCCC(=O)NC(Cc1c(CCCCCNC(=O)Nc2cc(C(=O)O)cc(C(=O)O)c2)[nH]c2ccccc12)C(=O)O)NC(Cc1c(CCCCCNC(=O)Nc2cc(C(=O)O)cc(C(=O)O)c2)[nH]c2ccccc12)C(=O)O` (stereo not shown) [Compound 24], in that order: 30.9 ± 0.98 µM and above 100 µM.
`O=C(CCC(CCC(=O)NC(Cc1c(-c2cc(C(=O)O)cc(C(=O)O)c2)[nH]c2ccccc12)C(=O)O)(CCC(=O)NC(Cc1c(-c2cc(C(=O)O)cc(C(=O)O)c2)[nH]c2ccccc12)C(=O)O)[N+](=O)[O-])NC(Cc1c(-c2cc(C(=O)O)cc(C(=O)O)c2)[nH]c2ccccc12)C(=O)O` (stereo not shown) [AL-470]: the figures for the EC50 with HIV-1 (NL4.3) [1] and with EV-A71 BrCr strain [2] were 0.27 ± 0.12 µM and 0.35 ± 0.03 µM, respectively.
Turning to dextran sulfate-5000 [DS-5000], the EC50 (usually the concentration giving half of the maximal effect) in the data set on HIV-2 (ROD) (virus-induced cytopathic effect reduced by 50%) was found to be 0.03 ± 0.01 µM; in the data set on HIV-1 (NL4.3) [3] (MT-4 cells), 0.07 ± 0.02 µM.
Regarding `O=C(O)CCCCCCc1[nH]c2ccccc2c1C[C@H](NC(=O)CCOCC(COCCC(=O)N[C@@H](Cc1c(CCCCCCC(=O)O)[nH]c2ccccc12)C(=O)O)(COCCC(=O)N[C@H](Cc1c(CCCCCCC(=O)O)[nH]c2ccccc12)C(=O)O)COCCC(=O)N[C@H](Cc1c(CCCCCCC(=O)O)[nH]c2ccccc12)C(=O)O)C(=O)O` [Compound 33], the CC50 was above 50 µM in the data set with MT-4 cells and above 100 µM with rhabdosarcoma (RD) cells.
With `O=C(O)CCCc1[nH]c2ccccc2c1C[C@H](NC(=O)CCOCC(COCCC(=O)N[C@@H](Cc1c(CCCC(=O)O)[nH]c2ccccc12)C(=O)O)(COCCC(=O)N[C@H](Cc1c(CCCC(=O)O)[nH]c2ccccc12)C(=O)O)COCCC(=O)N[C@H](Cc1c(CCCC(=O)O)[nH]c2ccccc12)C(=O)O)C(=O)O` [Compound 32], the CC50 in the data set on MT-4 cells is above 50 µM; with rhabdosarcoma (RD) cells, above 100 µM.
Consider `O=C(CCOCC(COCCC(=O)NC(Cc1c(CCCNC(=O)Nc2cc(C(=O)O)cc(C(=O)O)c2)[nH]c2ccccc12)C(=O)O)(COCCC(=O)NC(Cc1c(CCCNC(=O)Nc2cc(C(=O)O)cc(C(=O)O)c2)[nH]c2ccccc12)C(=O)O)COCCC(=O)NC(Cc1c(CCCNC(=O)Nc2cc(C(=O)O)cc(C(=O)O)c2)[nH]c2ccccc12)C(=O)O)NC(Cc1c(CCCNC(=O)Nc2cc(C(=O)O)cc(C(=O)O)c2)[nH]c2ccccc12)C(=O)O` (stereo not shown) [Compound 23], for which the EC50 with EV-A71 VP1_S184T was 0.41 ± 0.03 µM; in the data set with EV-A71 VP1_P246S it was 0.22 ± 0.01 µM; in the data set on EV-A71 VP1_S184T_P246S, 0.58 ± 0.2 µM. The CC50 in the data set on MT-4 cells and with rhabdosarcoma (RD) cells was above 50 µM in each case.
For the compound `CN[C@@H]1[C@H](O[C@@H]2OC[C@@H](O)[C@H](O)[C@H]2O)[C@@H](O)[C@H](O[C@H]2c3cc(C)c(C(=O)N[C@H](C)C(=O)O)c(O)c3-c3c(cc4c(c3O)C(=O)c3cc(OC)cc(O)c3C4=O)[C@@H]2O)O[C@@H]1C` [PRM-A, pradimicin A], the EC50 with HIV-2 (ROD) (setting [7]) was determined as 5.9 ± 3.7 µM; in the data set on HIV-1 (NL4.3) [3] (setting [8]) it was 3.3 ± 1.2 µM. The same compound came in with a CC50 at 5 days in data set [4] above 100 µM. In the data set on HIV-1 (NL4.3) [3] (MT-4 cells, Table 1), the “SI selectivity index (CC50/EC50)” value is above 30.3.
For `O=C(CCOCC(COCCC(=O)Nc1cc(C(=O)O)cc(C(=O)O)c1)(COCCC(=O)Nc1cc(C(=O)O)cc(C(=O)O)c1)COCCC(=O)Nc1cc(C(=O)O)cc(C(=O)O)c1)Nc1cc(C(=O)O)cc(C(=O)O)c1` [Compound 35], the EC50 in the data set with HIV-2 (ROD) (setting [7]) is above 50 µM; in the data set with HIV-1 (NL4.3) [3] (setting [8]), above 50 µM; in the data set with EV-A71 BrCr strain [6] (RD cells), 8.48 ± 2.34 µM; in the data set on EV-A71 BrCr strain [6] (setting [9]), 8.5 µM. Besides, the CC50 at 5 days in [4] was above 50 µM. Also, the “activity against HIV-1” value with HIV-1 (NL4.3) [3] (at concentrations up to 50 µM) was “inactive”. The compound further registered a CC50 at 3 days in [5] above 100 µM. For the same compound, the “SI selectivity index (CC50/EC50)” value in the data set on EV-A71 BrCr strain [6] (EV-A71 BrCr, RD cells) was above 12.
In the case of `CCOC(=O)c1ccc(OCCC2CCN(c3ccc(C)nn3)CC2)cc1` [Pirodavir, pirodavir, reference compound], in the data set with EV-A71 BrCr strain [6], the “SI selectivity index (CC50/EC50)” value is reported as above 333. This compound came in with an EC50 with EV-A71 BrCr strain [6] (setting [9]) of 0.3 ± 0.001 µM. The compound also showed a CC50 at 3 days in the data set “in vitro” above 100 µM.
